Values joined by “and” are separate entries in the source; they are usually repeats but may differ in a detail not shown here. Equal entries are not always repeated.
Test system: 521955-158-R2-J5-PDC complex spheroid growth
Assay: Anticancer human tumor 521955-158-R2-J5-PDC patient-derived pancreatic carcinoma cell line growth inhibition [AhR]
Settings: for viability, T/C: stronger effect = lower value
In short: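 Complex tumor spheroids co-cultured with HUVEC and human MSC stroma; AhR antagonists tested in combination with standard-of-care and investigational agents. Top concentration at or near clinical Cmax (else 10 microM), half-log dilutions; growth expressed as percent test/control.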

[1] = curve of first compound, second compound 0.1 µM
[2] = curve of first compound, second compound 0.316 µM
[3] = curve of first compound, second compound 1 µM
[4] = curve of first compound, second compound 3.16 µM
[5] = curve of first compound, second compound 10 µM
[6] = second compound 0.1 µM, first compound 0.0316 µM
[7] = second compound 0.1 µM, first compound 0.1 µM
[8] = second compound 0.1 µM, first compound 0.316 µM
[9] = second compound 0.1 µM, first compound 1 µM
[10] = second compound 0.1 µM, first compound 3.16 µM
[11] = second compound 0.1 µM, first compound 10 µM
[12] = second compound 0.316 µM, first compound 0.0316 µM
[13] = second compound 0.316 µM, first compound 0.1 µM
[14] = second compound 0.316 µM, first compound 0.316 µM
[15] = second compound 0.316 µM, first compound 1 µM
[16] = second compound 0.316 µM, first compound 3.16 µM
[17] = second compound 0.316 µM, first compound 10 µM
[18] = second compound 1 µM, first compound 0.0316 µM
[19] = second compound 1 µM, first compound 0.1 µM
[20] = second compound 1 µM, first compound 0.316 µM
[21] = second compound 1 µM, first compound 1 µM
[22] = second compound 1 µM, first compound 3.16 µM
[23] = second compound 1 µM, first compound 10 µM
[24] = second compound 3.16 µM, first compound 0.0316 µM
[25] = second compound 3.16 µM, first compound 0.1 µM
[26] = second compound 3.16 µM, first compound 0.316 µM
[27] = second compound 3.16 µM, first compound 1 µM
[28] = second compound 3.16 µM, first compound 3.16 µM
[29] = second compound 3.16 µM, first compound 10 µM
[30] = second compound 10 µM, first compound 0.0316 µM
[31] = second compound 10 µM, first compound 0.1 µM
[32] = second compound 10 µM, first compound 0.316 µM
[33] = second compound 10 µM, first compound 1 µM
[34] = second compound 10 µM, first compound 3.16 µM
[35] = second compound 10 µM, first compound 10 µM
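Wherever viability, T/C is given: spheroids mix tumor cells with HUVEC endothelium and human MSC stroma; luminescence taken as viability surrogate after a week of drug exposure.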

In the case of `COc1cc(Nc2ncc3c(n2)-c2ccc(Cl)cc2C(c2c(F)cccc2OC)=NC3)ccc1C(=O)O` + CC(CO)NC(=O)c1cc(-c2ccc(Cl)cc2)nn(-c2cnn(C)c2)c1=O, the IC50 [1] is reported as greater than 10 µM, the IC50 [2] is reported as greater than 10 µM and the IC50 [3] is reported as greater than 10 µM. For the same molecule, the IC50 [4] was 2.66 µM, the IC50 [5] was 1.18 µM and the viability, T/C [6] was 99.5%. It also gave a viability, T/C [7] of 78.4%, a viability, T/C [8] of 68.2% and a viability, T/C [9] of 61.9%. It also gave a viability, T/C [10] of 65.3%, a viability, T/C [11] of 50% and a viability, T/C [12] of 91.3%. It also gave a viability, T/C [13] of 74.6%, a viability, T/C [14] of 71.9% and a viability, T/C [15] of 76.5%. It also gave a viability, T/C [16] of 55%, a viability, T/C [17] of 50.6% and a viability, T/C [18] of 59.5%. The viability, T/C [19] was 64.9%, the viability, T/C [20] was 69.2% and the viability, T/C [21] was 63.6%. It also gave a viability, T/C [22] of 48.6%, a viability, T/C [23] of 72.8% and a viability, T/C [24] of 84.3%. It also gave a viability, T/C [25] of 69.5%, a viability, T/C [26] of 48% and a viability, T/C [27] of 65.4%. The viability, T/C [28] was 47.7%, the viability, T/C [29] was 44.9% and the viability, T/C [30] was 62.2%. For the same molecule, the viability, T/C [31] was 49.3%, the viability, T/C [32] was 62.4% and the viability, T/C [33] was 51.8%. The viability, T/C [34] was 37.6% and the viability, T/C [35] was 35%.
For `O=C(C=Cc1cccc(S(=O)(=O)Nc2ccccc2)c1)NO` + CC(CO)NC(=O)c1cc(-c2ccc(Cl)cc2)nn(-c2cnn(C)c2)c1=O, the IC50 [1] was 4.62 µM, the IC50 [2] was 4.89 µM and the IC50 [3] was 3.6 µM. It also gave an IC50 [4] of 5.85 µM, an IC50 [5] of 4.59 µM and a viability, T/C [6] of 108%. For the same molecule, the viability, T/C [7] was 107%, the viability, T/C [8] was 122% and the viability, T/C [9] was 93.2%. It also gave a viability, T/C [10] of 58.3%, a viability, T/C [11] of 35.5% and a viability, T/C [12] of 114%. The viability, T/C [13] was 135%, the viability, T/C [14] was 131% and the viability, T/C [15] was 91.2%. For the same molecule, the viability, T/C [16] was 62.6%, the viability, T/C [17] was 35% and the viability, T/C [18] was 131%. It also gave a viability, T/C [19] of 126%, a viability, T/C [20] of 120% and a viability, T/C [21] of 92.9%. For the same molecule, the viability, T/C [22] was 53.2%, the viability, T/C [23] was 26.5% and the viability, T/C [24] was 117%. It also gave a viability, T/C [25] of 101%, a viability, T/C [26] of 114% and a viability, T/C [27] of 98.1%. The viability, T/C [28] was 67.3%, the viability, T/C [29] was 35.1% and the viability, T/C [30] was 94.1%. For the same molecule, the viability, T/C [31] was 90.6%, the viability, T/C [32] was 82.8% and the viability, T/C [33] was 86.2%. The viability, T/C [34] was 61.4% and the viability, T/C [35] was 25.1%.
`CC(C)CC(NC(=O)C(Cc1ccccc1)NC(=O)c1cnccn1)B(O)O` (configuration not stated) + Cc1cncc(-c2nc(NCCc3c[nH]c4ccccc34)c3ncn(C(C)C)c3n2)c1 was tested, and the IC50 [1] was 0.0165 µM, the IC50 [2] was 0.0167 µM and the IC50 [3] was 0.0168 µM. The IC50 [4] was 0.0151 µM, the IC50 [5] was 0.00644 µM and the viability, T/C (second compound 0.1 µM, first compound 0.000949 µM) was 103%. For the same molecule, the viability, T/C (second compound 0.1 µM, first compound 0.003 µM) was 103%, the viability, T/C (second compound 0.1 µM, first compound 0.00949 µM) was 91.8% and the viability, T/C (second compound 0.1 µM, first compound 0.03 µM) was 4.93%. The viability, T/C (second compound 0.1 µM, first compound 0.0949 µM) was 0.17%, the viability, T/C (second compound 0.1 µM, first compound 0.3 µM) was 0.27% and the viability, T/C (second compound 0.316 µM, first compound 0.000949 µM) was 118%. The viability, T/C (second compound 0.316 µM, first compound 0.003 µM) was 92.1%, the viability, T/C (second compound 0.316 µM, first compound 0.00949 µM) was 97.5% and the viability, T/C (second compound 0.316 µM, first compound 0.03 µM) was 0.39%. The viability, T/C (second compound 0.316 µM, first compound 0.0949 µM) was 0.25%, the viability, T/C (second compound 0.316 µM, first compound 0.3 µM) was 0.21% and the viability, T/C (second compound 1 µM, first compound 0.000949 µM) was 107%. The viability, T/C (second compound 1 µM, first compound 0.003 µM) was 128%, the viability, T/C (second compound 1 µM, first compound 0.00949 µM) was 98.2% and the viability, T/C (second compound 1 µM, first compound 0.03 µM) was 1.49%. It also gave a viability, T/C (second compound 1 µM, first compound 0.0949 µM) of 2.14%, a viability, T/C (second compound 1 µM, first compound 0.3 µM) of 0.89% and a viability, T/C (second compound 3.16 µM, first compound 0.000949 µM) of 141%. The viability, T/C (second compound 3.16 µM, first compound 0.003 µM) was 127%, the viability, T/C (second compound 3.16 µM, first compound 0.00949 µM) was 81.7% and the viability, T/C (second compound 3.16 µM, first compound 0.03 µM) was 0.28%. The viability, T/C (second compound 3.16 µM, first compound 0.0949 µM) was 2.97%, the viability, T/C (second compound 3.16 µM, first compound 0.3 µM) was 2.29% and the viability, T/C (second compound 10 µM, first compound 0.000949 µM) was 144%. For the same molecule, the viability, T/C (second compound 10 µM, first compound 0.003 µM) was 126%, the viability, T/C (second compound 10 µM, first compound 0.00949 µM) was 11.6% and the viability, T/C (second compound 10 µM, first compound 0.03 µM) was 0.28%. It also gave a viability, T/C (second compound 10 µM, first compound 0.0949 µM) of 2.54% and a viability, T/C (second compound 10 µM, first compound 0.3 µM) of 0.26%.
For `CC(C)c1c(-c2ccccc2)nc2c(C#N)c[nH]n2c1=O`, the viability, T/C (compound 0.0316 µM) was 86.8% and 83.8% and 96.4%, the viability, T/C (compound 0.1 µM) was 103% and 100% and 89.5% and the viability, T/C (compound 0.316 µM) was 96.2% and 76.9% and 87.5%. For the same molecule, the viability, T/C (compound 1 µM) was 85.3% and 75.7% and 64.5%, the viability, T/C (compound 3.16 µM) was 88.3% and 95.4% and 70.7% and the viability, T/C (compound 10 µM) was 83.1% and 71.7% and 86.4%. The IC50 (curve of compound) was greater than 10 µM.
`CC1(C)CCC(CN2CCN(c3ccc(C(=O)NS(=O)(=O)c4ccc(NCC5CCOCC5)c([N+](=O)[O-])c4)c(Oc4cnc5[nH]ccc5c4)c3)CC2)=C(c2ccc(Cl)cc2)C1` + CC(CO)NC(=O)c1cc(-c2ccc(Cl)cc2)nn(-c2cnn(C)c2)c1=O showed an IC50 [1] greater than 10 µM, an IC50 [2] greater than 10 µM and an IC50 [3] greater than 10 µM. For the same molecule, the IC50 [4] was greater than 10 µM, the IC50 [5] was greater than 10 µM and the viability, T/C [6] was 103%. It also gave a viability, T/C [7] of 125%, a viability, T/C [8] of 92.1% and a viability, T/C [9] of 92.7%. It also gave a viability, T/C [10] of 98%, a viability, T/C [11] of 67.3% and a viability, T/C [12] of 115%. For the same molecule, the viability, T/C [13] was 111%, the viability, T/C [14] was 124% and the viability, T/C [15] was 100%. The viability, T/C [16] was 111%, the viability, T/C [17] was 67.7% and the viability, T/C [18] was 93.1%. For the same molecule, the viability, T/C [19] was 105%, the viability, T/C [20] was 122% and the viability, T/C [21] was 138%. For the same molecule, the viability, T/C [22] was 124%, the viability, T/C [23] was 56% and the viability, T/C [24] was 123%. It also gave a viability, T/C [25] of 99.1%, a viability, T/C [26] of 113% and a viability, T/C [27] of 113%. It also gave a viability, T/C [28] of 108%, a viability, T/C [29] of 61.9% and a viability, T/C [30] of 90.2%. For the same molecule, the viability, T/C [31] was 120%, the viability, T/C [32] was 109% and the viability, T/C [33] was 92.8%. The viability, T/C [34] was 95.1% and the viability, T/C [35] was 63.7%.

Source: PubChem BioAssay AID1918998 (Molecular Pharmacology Branch, DTP, NCI, 2023)
